Experiments:
Type in all cases: functional, cell-based
MDA-MB-231 = test: Antiproliferation activity against human MDA-MB-231 cells assessed as reduction in cell viability after 72 hrs by WST-8 assay; details: MDA-MB-231, 72 h
HeLa = test: Antiproliferation activity against human HeLa cells assessed as reduction in cell viability after 72 hrs by WST-8 assay
A549 = test: Antiproliferative activity against human A549 cells assessed as reduction in cell viability after 72 hrs by WST-8 assay; details: A549, 72 h

Compound	IC50 (MDA-MB-231) [nM]	IC50 (HeLa) [nM]	IC50 (A549) [nM]
C=C[C@@]12COC(=O)C(=C)[C@@H]1[C@H]1OC(=O)C(=C)[C@@H]1[C@@H](OC(=O)C(=C)COCC)C2	9500	16300	21600
C=C[C@@]12COC(=O)C(=C)[C@@H]1[C@H]1OC(=O)C(=C)[C@@H]1[C@@H](O)C2 [VERNOLEPIN]	1900	2200	16900
C=C[C@]1(C)C[C@H](OC(=O)C(=C)COC(C)=O)[C@H]2C(=C)C(=O)O[C@@H]2[C@H]1C(=C)C=O	3200	4160	2950

These reach a lower IC50 (MDA-MB-231). Values come first.

IC50 (MDA-MB-231) [nM]	IC50 (HeLa) [nM]	IC50 (A549) [nM]	Compound
1350	2160	1520	C=C[C@@]12COC(=O)C(=C)[C@@H]1[C@H]1OC(=O)C(=C)[C@@H]1[C@@H](OC(=O)C(=C)COC(C)=O)C2
300	200	400	C=C[C@@]12COC(=O)C(=C)[C@@H]1[C@H]1OC(=O)C(=C)[C@@H]1[C@@H](OC(=O)C(=C)CO)C2 [VERNODALIN]
350	400	700	C=C[C@]1(C)C[C@H](OC(=O)C(=C)CO)[C@H]2C(=C)C(=O)O[C@@H]2[C@H]1C(=C)C=O
250	100	1000	C=C(CO)C(=O)O[C@H]1CC(=C)[C@@H]2CC[C@@H](CO)[C@@H]2[C@H]2OC(=O)C(=C)[C@@H]21
